The target of test [1] is T1, EED (Homo sapiens, UniProt O75530).
T1 construct: His (C); made in house; host or cells: Escherichia coli BL21(DE3)
Nature of the test: Competitive fluorescence polarization: displacement of FITC-labeled EZH2(42-68) peptide from EED. Type of test: binding. As to conditions: N-terminal acetylated peptides; EED 200 nM, FITC-peptide 20 nM, 30 min. On the procedure: The EED binding affinities of SAH-EZH2 and SAH-EZH2(42-68)AC were assessed by their capacities to displace FITC-labeled EZH2(42-68) peptide from EED. Serially diluted acetyl-SAH-EZH2 and the doubly stapled acetyl-SAH-EZH2(42-68)AC (dose range from 2.5 nM to 10 μIM) were incubated with purified EED (200 nM) and FITC-labeled EZH2(42-68) peptide (20 nM) for 30 min, followed by measurement of fluorescence polarization. […] The non-binding EZH2(47-64) construct was used as a negative control.

Test [2] has as its target T2, HA-EED (Homo sapiens, UniProt O75530).
T2 construct: made in house; host or cells: Sf21 insect cells
Put plainly: Anti-FITC pull down of HA-EED by FITC-SAH-EZH2 peptides. It is filed as binding. The conditions noted are these: HA-EED 40 nM. The protocol: (§1) [formula] y: Fluorescence polarization, X: Receptor concentration, L: Ligand concentration AF: Minimum value of y, AB: Maximum value of y For anti-FITC pull down-based binding assays, HA-EED was produced in Sf21 cells as described in Shen et al.^29,46. FITC-SAH-EZH2 peptides (final concentration, 50, 10, and 2 nM) were mixed with 2 μl, 0.5 μl and 0.2 μl of anti-FITC antibody (Abcam, 1 mg/ml) respectively, and incubated with 30 μl of protein G agarose (Roche) in 400 μl binding buffer (pH 8.0, 20 mM Tris-HCl, 150 mM NaCl, 0.3% NP40, 10% glycerol). After successive washes, HA-EED (final concentration of 40 nM each tube) was added and incubated for 3 h, followed by detection of HA-EED bound to FITC-SAH-EZH2 peptides by anti-HA (Santa Cruz Biotechnology) western analysis. Detection of FITC-SAH-EZH2 peptides was accomplished by fluorescence scan (GE Healthcare Life Sciences, Typhoon 9200).

Test [3] has as its target T1, EED. Nature of the test: Fluorescence polarization binding of FITC-labeled SAH-EZH2 peptides to EED. As to conditions: FITC-peptide 25 nM; His-EED 25 nM-8 μM. The protocol: SAH-EZH2/EED Binding Analyses: For fluorescence polarization binding analysis, C-terminal His-tagged EED (His-EED) was expressed in Escherichia coli BL21(DE3) using 0.3 mM IPTG for 6 h at room temperature. Bacterial pellet lysate was loaded onto a Ni-NTA column (Novagen) for purification of His-EED. Fluorescinated stapled peptides (final concentration, 25 nM) were incubated with His-EED (serial dilution range, 25 nM-8 μM) at room temperature until equilibrium was reached (˜15 min) Binding activity was measured by fluorescence polarization on a Perkin-Elmer LS50B luminescence 5 spectrophotometer. KD values were determined by following equation,
as §1
A general note: In fluorescence polarisation assays a small probe gives low polarisation when free and higher when bound to something large.

Test [4] has as its system 22Rv1. Nature of the test: Viability of androgen independent prostate cancer cells 22Rv1, Cell Titer Glo. It is filed as cell-based. As to conditions: 22Rv1, every other day; read-out: IC50 for growth. On the procedure:
(§2) To test the anti-proliferative effect of SAH-EZH2(42-68)AC, breast (MDA-MB231) and prostate (DU145) cancer cell lines were treated with SAH-EZH2(42-68)AC at the indicated doses for 8 days and measured for viability by Cell Titer Glo®SAH-EZH2(42-68)AC was added to the culture medium once every other day. […] We further tested the anti-proliferative effects of SAH-EZH2(42-68)AC on a Ewing Sarcoma cell line (TC71) and neuroblastoma cell line (Kelly). The cells were treated with SAH-EZH2(42-68)AC at the indicated doses for 6 days on an every other day schedule and then measured for viability using Cell Titer Glo®. […] To test the anti-proliferative effect on chronic myelogenous leukemia, SAH-EZH2(42-68)AC was added to K562 cells at 10 μM every other day and viability was measured at days 2, 4, 6, and 10 using Cell Titer Glo®. […] To assess the anti-proliferative effects of SAH-EZH2(42-68)AC on androgen-dependent and advanced androgen-independent prostate cancer, SAH-EZH2(42-68)AC was added to cell culture every other day at the indicated doses and viability measured using Cell Titer Glo®.
(In ATP-based viability assays light output follows the ATP content of the culture.)

For test [5], the system named is TC71. Nature of the test: Viability of Ewing Sarcoma cell line TC71, Cell Titer Glo. Type of test: cell-based. The conditions noted are these: 6 days, every other day. The protocol: as §2
The test system of test [6] is MDA-MB231 breast cancer cells. Put plainly: Viability of MDA-MB231 breast cancer cells. As to conditions: 8 days, once every other day. It is filed as cell-based. The text has this: (§3) To compare the functional and mechanism-based cellular activities of SAH-EZH2 and GSK126, a small molecule inhibitor of EZH2 enzymatic activity (McCabe et al. Nature, 492: 108-112, 2012), we conducted viability assays on the EZH2-dependent cell line MLL-AF9 and the EZH2-independent (non-leukemic) cell line 32D. […] We next compared the effects of SAH-EZH2 and GSK126 on lineage specific surface marker expression in MLL-AF9 cells. […] Given the distinct mechanisms of action of SAH-EZH2 and GSK126, we explored whether co-administration of the two compounds would enhance the anti-leukemic effects. […]
(§4) To test the anti-proliferative effect of SAH-EZH2(42-68)AC, breast (MDA-MB231) and prostate (DU145) cancer cell lines were treated with SAH-EZH2(42-68)AC at the indicated doses for 8 days and measured for viability by Cell Titer Glo®SAH-EZH2(42-68)AC was added to the culture medium once every other day. […] The cells were treated with SAH-EZH2(42-68)AC at the indicated doses for 6 days on an every other day schedule and then measured for viability using Cell Titer Glo®. […] To test the anti-proliferative effect on chronic myelogenous leukemia, SAH-EZH2(42-68)AC was added to K562 cells at 10 μM every other day and viability was measured at days 2, 4, 6, and 10 using Cell Titer Glo®. […]

For test [7], the system named is DU145 prostate cancer cells. Nature of the test: Viability of DU145 prostate cancer cells. The conditions noted are these: 8 days, once every other day. Type of test: cell-based.
From the text: as §3, §4

The test system of test [8] is K562 cells. Nature of the test: Viability of K562 chronic myelogenous leukemia cells, Cell Titer Glo. It is filed as cell-based. The conditions noted are these: 10 μM every other day; days 2, 4, 6 and 10. On the procedure: as §2
The subject of test [9] is Abl. Nature of the test: Viability of androgen independent prostate cancer cells Abl, Cell Titer Glo. It is filed as cell-based. The conditions noted are these: every other day, read-out: IC50 for growth. On the procedure:
as §2

The test system of test [10] is Kelly. Nature of the test: Viability of neuroblastoma cell line Kelly, Cell Titer Glo. Type of test: cell-based. The conditions noted are these: 6 days, every other day. The protocol:
as §2

In test [11] the test system is LNCaP cells. Nature of the test: Viability of androgen-dependent LNCaP cells, Cell Titer Glo. Type of test: cell-based. The conditions noted are these: every other day. On the procedure:
as §2

Test [12] deals with MLL-AF9 leukemia cells. Put plainly: Apoptosis by Annexin V/7-AAD flow cytometry. It is filed as cell-based, mouse. The conditions noted are these: positive control, 2 μM, 48 h. On the procedure:
Cell Proliferation, Apoptosis, and Cell Cycle Analyses: To monitor the effect of SAH-EZH2 peptides on cell proliferation, MLL-AF9 cells were seeded in 48 well plates at densities of 2×10^5 cells per well in 150 μl of AF9 media and treated with SAH-EZH2 peptides (10 μM) twice daily. Cells were counted every other day using a hematocytometer. To evaluate apoptosis induction, the cells were stained with Annexin V5-PE and 7-AAD after 8 or 16 days of treatment with SAH-EZH2 peptides. Camptothecin (Biovision) was used as a positive control (2 μM, 48 h). Cells were analyzed using a BD FACScaliber and data was processed using Flowjo software. For cell cycle analysis, cells were stained with propidium iodide (BD Biosciences) after 4 or 8 days of treatment with SAH-EZH2 peptides. Cells were analyzed using a BD FACSCalibur and data processed using Modfit software.
(In general: Flow cytometry measures light scatter and fluorescence of single cells or particles in a stream.)

For test [13], the system named is MLL-AF9. Put plainly: Viability assay on EZH2-dependent cell line MLL-AF9. Type of test: cell-based, mouse. The text has this:
(§5) To compare the functional and mechanism-based cellular activities of SAH-EZH2 and GSK126, a small molecule inhibitor of EZH2 enzymatic activity (McCabe et al. Nature, 492: 108-112, 2012), we conducted viability assays on the EZH2-dependent cell line MLL-AF9 and the EZH2-independent (non-leukemic) cell line 32D. […] We next compared the effects of SAH-EZH2 and GSK126 on lineage specific surface marker expression in MLL-AF9 cells. […] Given the distinct mechanisms of action of SAH-EZH2 and GSK126, we explored whether co-administration of the two compounds would enhance the anti-leukemic effects. […] Thus, SAH-EZH2 manifests a unique mechanism of action by targeting EED, dissociating the EZH2/EED complex, and thereby reduces EZH2 protein levels. As a result, the H3K27Me3 mark is reduced over time and PRC2 transcriptional effects are inhibited, leading to anti-proliferative and induced-differentiation effects on EZH2-dependent leukemia cells.

Test [14] deals with 32D. Put plainly: Viability assay on EZH2-independent cell line 32D. It is filed as cell-based. As to conditions: EZH2-independent (non-leukemic).
From the text: as §5

For test [15], the system named is CD133. Put plainly: CD133 expression in MLL-AF9 cells. Type of test: cell-based, mouse. As to conditions: MLL-AF9, 8 days of treatment.
The subject of test [16] is Ace1, Adam8 and Fcer1a. Nature of the test: Real time qPCR of macrophage/monocyte lineage-specific markers in MLL-AF9 cells. It is filed as cell-based, mouse. The conditions noted are these: MLL-AF9, 8 days.

Eight compounds from US10308926B2, “Stablized EZH2 peptides” (DANA-FARBER CANCER INSTITUTE, INC., priority 2013, dated 2019) can be followed below.

Bridges are numbered along the chain shown (N, C = ends). Where no end group is shown, it is not given here. [ ]: non-standard residue; d: D form. S5 = C=CCCC[C@](C)(N)C(=O)O; Nle = CCCC[C@H](N)C(=O)O Bounds are passed on as bounds.

T1 sequence (O75530 whole entry, species assumed): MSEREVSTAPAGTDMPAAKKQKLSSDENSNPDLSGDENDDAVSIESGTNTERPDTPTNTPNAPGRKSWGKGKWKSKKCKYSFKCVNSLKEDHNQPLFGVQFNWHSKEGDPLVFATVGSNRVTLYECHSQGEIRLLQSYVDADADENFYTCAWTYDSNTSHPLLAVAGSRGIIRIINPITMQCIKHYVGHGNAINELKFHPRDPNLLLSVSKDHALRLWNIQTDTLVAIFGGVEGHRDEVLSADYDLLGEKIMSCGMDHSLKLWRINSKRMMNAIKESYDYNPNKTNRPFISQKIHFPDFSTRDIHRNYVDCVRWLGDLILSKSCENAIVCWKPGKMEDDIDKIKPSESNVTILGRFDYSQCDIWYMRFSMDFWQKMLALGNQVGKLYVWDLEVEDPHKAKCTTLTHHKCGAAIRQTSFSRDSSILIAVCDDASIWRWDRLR
T2 sequence (O75530 whole entry): as the sequence (O75530 whole entry, species assumed) above

Take “QKILERTEILNQEWKQRR (SEQ ID NO: 11) [EZH2(47-64), reference compound]”: the “Displacement of FITC-labeled EZH2(42-68) peptide from EED” value in test [1] is given as “non-binding”.
Take “FSSNRXKILXRTEILNQEWKQRR (SEQ ID NO: 19) (FSSNR[S5]KIL[S5]RTEILNQEWKQRR; staple 6-10) [SAH-EZH2A(42-64)]”: the “Engagement of HA-EED by anti-FITC pull down” value in test [2] is reported as “no appreciable engagement”. In [3], the “EED-binding activity by fluorescence polarization” value (shortened to “EED-binding activity”) is given as “no appreciable engagement”.
A word on the IC50: it is the concentration needed to halve the response being measured. For “FSSNRXKILXRTXILNXEWKQRRIQPV (SEQ ID NO:56) (FSSNR[S5]KIL[S5]RT[S5]ILN[S5]EWKQRRIQPV; staple 6-10, 13-17) [SAH-EZH2(42-68)AC]”, the IC50 in [4] and in test [9] was < 1000 nM each time. In addition, the “Anti-proliferative effect on TC71” value in [5] is on record as “noticeable anti-proliferative effects”. Also, the “Displacement of FITC-labeled EZH2(42-68) peptide from EED” value in test [1] is “two times more efficiently than SAH-EZH2”. For the same compound, the “Anti-proliferative effect on MDA-MB231” value in [6] was “enhanced dose-dependent anti-proliferative effects compared to SAH-EZH2 treatment”. For the same compound, the “Anti-proliferative effect on DU145” value in test [7] was “enhanced dose-dependent anti-proliferative effects compared to SAH-EZH2 treatment”. The “Proliferation of K562 cells” value in test [8] is on record as “decreased proliferation of K562 cells in a dose-responsive manner”. Besides, the “Anti-proliferative effect on Kelly” value in [10] is “noticeable anti-proliferative effects”. In addition, the “Anti-proliferative activity on LNCaP” value in test [11] is reported as “anti-proliferative activity in each case”.
Turning to “SAH-EZH2B(42-64): foreshortened stapled EZH2(42-64) peptide with the B-positioned staple; probably position 'C' of FIG. 2, SEQ ID NO: 20 (FSSNRQKILERT[S5]ILN[S5]EWKQRR; staple 13-17)”, in [2], the “Engagement of HA-EED by anti-FITC pull down” value is given as “no appreciable engagement”. In addition, the “EED-binding activity” value in test [3] is “no appreciable engagement”.
As to “SAH-EZH2B(40-68): stapled EZH2(40-68) peptide with the B-positioned staple; probably position 'C' (54-58) of FIG. 2, SEQ ID NO: 5 (S[Nle]FSSNRQKILERT[S5]ILN[S5]EWKQRRIQPV; staple 15-19)”, the “EED-binding activity” value in test [3] was “most potent dose-responsive EED-binding activities”.
Same read-out and setting: for “SBFSSNRXKILXRTEILNQEWKQRRIQPV (SEQ ID NO: 3) (S[Nle]FSSNR[S5]KIL[S5]RTEILNQEWKQRRIQPV; staple 8-12) [SAH-EZH2A(40-68)]” the value was “most potent dose-responsive EED-binding activities”.
Take `CC[C@@]1(O)C(=O)OCc2c1cc1n(c2=O)Cc2cc3ccccc3nc2-1` [camptothecin]: the Apoptotic effect entry in test [12] is reported as “robust apoptotic effect”.
On to `CC[C@H](C)n1cc(C)c2c(C(=O)NCc3c(C)cc(C)[nH]c3=O)cc(-c3ccc(N4CCNCC4)nc3)cc21` [GSK126], for which, in test [13], the “Viability of MLL-AF9 cells” value is “decreased the viability”. Also, the “Viability of 32D cells” value in test [14] is given as “decreased the viability”. Besides, in [15], the “Expression of CD133” value is “decreased the expression”. Also, in [16], the “Expression of macrophage lineage-specific markers” value is reported as “increase expression of Fcerla”.
